According to patent US6737383B1, “Herbicidal oxadiazolidines” (priority 1999, dated 2004):

Key:
[1] = test system: sugar beet; assay: Test B pre/postemergence sugar beet; type: in vivo, Beta vulgaris
How it was run: (§1)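 Test chemicals in a non-phytotoxic solvent mixture with surfactant were sprayed preemergence onto planted seeds and postemergence onto plants 2 to 18 cm tall (1- to 4-leaf stage). After twelve to sixteen days in a greenhouse, injury was visually rated against untreated controls from 0 (no effect) to 10 (complete control).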

[2] = test system: cocklebur; assay: Test B pre/postemergence cocklebur; type: in vivo, Xanthium strumarium
How it was run: as §1

[3] = test system: corn; assay: Test B pre/postemergence corn; type: in vivo, Zea mays
How it was run: as §1

[4] = test system: velvetleaf; assay: Test B pre/postemergence velvetleaf; type: in vivo, Abutilon theophrasti
How it was run: as §1

[5] = test system: giant foxtail; assay: Test B pre/postemergence giant foxtail; type: in vivo, Setaria faberii
How it was run: as §1

[6] = test system: soybean; assay: Test B pre/postemergence soybean; type: in vivo, Glycine max
How it was run: as §1

[7] = test system: morningglory; assay: Test B pre/postemergence morningglory; type: in vivo, Ipomoea hederacea
How it was run: as §1

[8] = test system: pigweed; assay: Test B pre/postemergence pigweed; type: in vivo, Amaranthus retroflexus
How it was run: as §1

[9] = test system: surinam grass; assay: Test B pre/postemergence surinam grass; type: in vivo, Brachiaria decumbens
How it was run: as §1

[10] = test system: crabgrass; assay: Test B pre/postemergence crabgrass; type: in vivo, Digitaria sanguinalis
How it was run: as §1

[11] = test system: wheat; assay: Test B pre/postemergence wheat; type: in vivo, Triticum aestivum
How it was run: as §1

[12] = test system: rape; assay: Test B pre/postemergence rape; type: in vivo, Brassica napus
How it was run: as §1

[13] = test system: blackgrass; assay: Test B pre/postemergence blackgrass; type: in vivo, Alopecurus myosuroides
How it was run: as §1

[14] = test system: purple nutsedge; assay: Test B pre/postemergence purple nutsedge; type: in vivo, Cyperus rotundus
How it was run: as §1

[15] = test system: bedstraw; assay: Test B pre/postemergence bedstraw; type: in vivo, Galium aparine
How it was run: as §1

[16] = test system: wild oat; assay: Test B pre/postemergence wild oat; type: in vivo, Avena fatua
How it was run: as §1

[17] = Postemergence, Rate 62 g/ha, scale 0 to 10, 0 is no effect, 10 is complete control
[18] = Postemergence, Rate 125 g/ha, scale of 0 to 10 where 0 is no effect and 10 is complete control
[19] = Preemergence, Rate 125 g/ha, scale of 0 to 10 where 0 is no effect and 10 is complete control
[20] = Preemergence, Rate 250 g/ha, scale 0 (no effect) to 10 (complete control)
[21] = Rate 62 g/ha, Preemergence, scale 0 to 10
[22] = Rate 250 g/ha, Postemergence, scale 0 to 10, 0 is no effect, 10 is complete control
[23] = Rate 500 g/ha, Postemergence, scale 0 to 10, 0 is no effect, 10 is complete control
[24] = Rate 500 g/ha, Preemergence, scale 0 to 10 (0 no effect, 10 complete control)

With CC(C)N(C(=O)n1oc(=O)n(C[C@H](C)Cl)c1=O)c1ccc(Cl)cc1 [Compound 748] the “Plant response rating, Sugarbeets” value [1, 17] was 0, the “Sugarbeets plant response rating” value [1, 18] was 2 and the “Plant response rating, Sugarbeets” value [1, 19] was 0. The “Sugarbeets plant response rating” value [1, 20] was 2, the “Sugarbeets plant response rating” value [1, 21] was 0 and the “Sugarbeets plant response rating” value [1, 22] was 6. For the same compound, the “Sugarbeets plant response rating” value [1, 23] was 7, the “Sugarbeets plant response rating” value [1, 24] was 7 and the “Plant response rating, Cocklebur” value [2, 17] was 0. For the same compound, the “Cocklebur plant response rating” value [2, 18] was 0, the “Plant response rating, Cocklebur” value [2, 19] was 0 and the “Cocklebur plant response rating” value [2, 20] was 0. For the same compound, the “Cocklebur plant response rating” value [2, 21] was 0, the “Cocklebur plant response rating” value [2, 22] was 0 and the “Cocklebur plant response rating” value [2, 24] was 0. The “Plant response rating, Corn” value [3, 17] was 0, the “Corn plant response rating” value [3, 18] was 0 and the “Plant response rating, Corn” value [3, 19] was 0. The “Corn plant response rating” value [3, 20] was 0, the “Corn plant response rating” value [3, 21] was 0 and the “Corn plant response rating” value [3, 22] was 0. The “Corn plant response rating” value [3, 23] was 0, the “Corn plant response rating” value [3, 24] was 4 and the “Plant response rating, Velvetleaf” value [4, 17] was 0. For the same compound, the “Velvetleaf plant response rating” value [4, 18] was 0, the “Plant response rating, Velvetleaf” value [4, 19] was 0 and the “Velvetleaf plant response rating” value [4, 20] was 0. The “Velvetleaf plant response rating” value [4, 21] was 0, the “Velvetleaf plant response rating” value [4, 22] was 0 and the “Velvetleaf plant response rating” value [4, 23] was 4. For the same compound, the “Velvetleaf plant response rating” value [4, 24] was 0, the “Plant response rating, Giant foxtail” value [5, 17] was 2 and the “Giant foxtail plant response rating” value [5, 18] was 6. For the same compound, the “Plant response rating, Giant foxtail” value [5, 19] was 10, the “Giant foxtail plant response rating” value [5, 20] was 10 and the “Giant foxtail plant response rating” value [5, 21] was 9. For the same compound, the “Giant foxtail plant response rating” value [5, 22] was 8, the “Giant foxtail plant response rating” value [5, 23] was 9 and the “Giant foxtail plant response rating” value [5, 24] was 10. The “Plant response rating, Soybean” value [6, 17] was 3, the “Soybean plant response rating” value [6, 18] was 3 and the “Plant response rating, Soybean” value [6, 19] was 0. For the same compound, the “Soybean plant response rating” value [6, 20] was 0, the “Soybean plant response rating” value [6, 21] was 0 and the “Soybean plant response rating” value [6, 22] was 4. For the same compound, the “Soybean plant response rating” value [6, 23] was 5, the “Soybean plant response rating” value [6, 24] was 0 and the “Plant response rating, Morningglory” value [7, 17] was 0. The “Morningglory plant response rating” value [7, 18] was 6, the “Plant response rating, Morningglory” value [7, 19] was 0 and the “Morningglory plant response rating” value [7, 20] was 0. The “Morningglory plant response rating” value [7, 21] was 0, the “Morningglory plant response rating” value [7, 22] was 6 and the “Morningglory plant response rating” value [7, 23] was 7. The “Morningglory plant response rating” value [7, 24] was 0, the “Plant response rating, Redroot pigweed” value [8, 17] was 2 and the “Redroot pigweed plant response rating” value [8, 18] was 4. The “Plant response rating, Redroot pigweed” value [8, 19] was 10, the “Redroot pigweed plant response rating” value [8, 20] was 10 and the “Redroot pigweed plant response rating” value [8, 21] was 4. The “Redroot pigweed plant response rating” value [8, 22] was 6, the “Redroot pigweed plant response rating” value [8, 23] was 8 and the “Redroot pigweed plant response rating” value [8, 24] was 10. The “Plant response rating, B. signalgrass” value [9, 17] was 2, the “B. signalgrass plant response rating” value [9, 18] was 2 and the “B. signalgrass plant response rating” value ([9]; Preemergence, Rate 62 g/ha, scale of 0 to 10 where 0 is no effect and 10 is complete control) was 0. For the same compound, the “Plant response rating, B. signalgrass” value [9, 19] was 3, the “B. signalgrass plant response rating” value [9, 20] was 3 and the “B. signalgrass plant response rating” value [9, 22] was 4. For the same compound, the “B. signalgrass plant response rating” value [9, 23] was 7, the “B. signalgrass plant response rating” value [9, 24] was 10 and the “Plant response rating, Crabgrass” value [10, 17] was 2. For the same compound, the “Crabgrass plant response rating” value [10, 18] was 3, the “Plant response rating, Crabgrass” value [10, 19] was 10 and the “Crabgrass plant response rating” value [10, 20] was 10. The “Crabgrass plant response rating” value [10, 21] was 9, the “Crabgrass plant response rating” value [10, 22] was 8 and the “Crabgrass plant response rating” value [10, 23] was 9. The “Crabgrass plant response rating” value [10, 24] was 10, the “Plant response rating, Wheat” value [11, 17] was 0 and the “Wheat plant response rating” value [11, 18] was 0. The “Plant response rating, Wheat” value [11, 19] was 0, the “Wheat plant response rating” value [11, 20] was 0 and the “Wheat plant response rating” value [11, 21] was 0. For the same compound, the “Wheat plant response rating” value [11, 22] was 0, the “Wheat plant response rating” value [11, 24] was 5 and the “Plant response rating, Rape” value [12, 17] was 0. For the same compound, the “Rape plant response rating” value [12, 18] was 3, the “Plant response rating, Rape” value [12, 19] was 0 and the “Rape plant response rating” value [12, 20] was 0. For the same compound, the “Rape plant response rating” value [12, 21] was 0, the “Rape plant response rating” value [12, 22] was 6 and the “Rape plant response rating” value [12, 23] was 7. For the same compound, the “Rape plant response rating” value [12, 24] was 7, the “Plant response rating, Blackgrass” value [13, 17] was 5 and the “Blackgrass plant response rating” value [13, 18] was 6. For the same compound, the “Plant response rating, Blackgrass” value [13, 19] was 3, the “Blackgrass plant response rating” value [13, 21] was 0 and the “Blackgrass plant response rating” value [13, 22] was 7. The “Blackgrass plant response rating” value [13, 23] was 8, the “Blackgrass plant response rating” value [13, 24] was 9 and the “Plant response rating, Nutsedge” value [14, 17] was 0. The “Nutsedge plant response rating” value [14, 18] was 0, the “Plant response rating, Nutsedge” value [14, 19] was 0 and the “Nutsedge plant response rating” value [14, 20] was 0. For the same compound, the “Nutsedge plant response rating” value [14, 21] was 0, the “Nutsedge plant response rating” value [14, 22] was 0 and the “Nutsedge plant response rating” value [14, 23] was 0. For the same compound, the “Nutsedge plant response rating” value [14, 24] was 2, the “Plant response rating, Bedstraw” value [15, 17] was 5 and the “Bedstraw plant response rating” value [15, 18] was 6. The “Plant response rating, Bedstraw” value [15, 19] was 0, the “Bedstraw plant response rating” value [15, 20] was 0 and the “Bedstraw plant response rating” value [15, 22] was 9. For the same compound, the “Bedstraw plant response rating” value [15, 23] was 9, the “Bedstraw plant response rating” value [15, 24] was 0 and the “Plant response rating, Wild oats” value [16, 17] was 0. The “Wild oats plant response rating” value [16, 18] was 0, the “Plant response rating, Wild oats” value [16, 19] was 2 and the “Wild oats plant response rating” value [16, 20] was 2. The “Wild oats plant response rating” value [16, 21] was 0, the “Wild oats plant response rating” value [16, 22] was 0 and the “Wild oats plant response rating” value [16, 23] was 0. For the same compound, the “Wild oats plant response rating” value [16, 24] was 8.
